Source: US7632918B2, “Semi-synthetic glycopeptides with antibiotic activity” (Novartis Vaccines and Diagnostics, Inc., priority 2005, dated 2009)
≈ marks a conversion by molar mass, not a printed value.

Columns and labels:
Assay in all cases: MIC, broth microdilution in Meuller-Hinton broth (NCCLS)
3798 S. aureus (GISA) = type: cell-based, Staphylococus aureus; settings: glycopeptides-intermediate clinical isolate
Protocol: (§1) Antibacterial activity in vitro was investigated by broth microdilution method in Meuller-Hinton broth as recommended by NCCLS. All strains tested were clinical isolates either sensitive or resistant to natural glycopeptides. Results are reported in the tables as MIC (minimal inhibitory concentration) in μg/ml.
(§2) The glycopeptides were tested against a variety of strains, indicated below, including Staphylococus epidermidis, Staphylococus haemolyticus, glycopeptides-intermediate Staphylococus aureus (GISA), glocopeptide-sensitive Enterococcus faecalis (GSE), and glocopeptide-resistant Enterococcus faecalis (GRE). Results are shown in the table as minimum inhibitory concentration (MIC) in units of μg/ml: […]

3797 S. aureus (GISA) = type: cell-based, Staphylococus aureus; settings: glycopeptides-intermediate clinical isolate
Protocol: as §1, §2

602 S. haemolyticus = type: cell-based, Staphylococus haemolyticus; settings: clinical isolate
Protocol: as §1, §2

533 S. epidermidis = type: cell-based, Staphylococus epidermidis; settings: clinical isolate
Protocol: as §1, §2

560 E. faecalis (GRE) = type: cell-based, Enterococcus faecalis; settings: glycopeptide-resistant clinical isolate
Protocol: as §1, §2

559 E. faecalis (GSE) = type: cell-based, Enterococcus faecalis; settings: glycopeptide-sensitive clinical isolate
Protocol: as §1, §2

569 E. faecium (GRE) = type: cell-based; settings: glycopeptide-resistant clinical isolate
Protocol: as §1, §2

568 E. faecium (GSE) = type: cell-based; settings: glycopeptide-sensitive clinical isolate
Protocol: as §1, §2

SMILES	MIC 3798 S. aureus (GISA) (3798 S. aureus (GISA)) [µg/mL]	MIC 3797 S. aureus (GISA) (3797 S. aureus (GISA)) [µg/mL]	MIC 602 S. haemolyticus (602 S. haemolyticus) [µg/mL]	MIC 533 S. epidermidis (533 S. epidermidis) [µg/mL]	MIC 560 E. faecalis (GRE) (560 E. faecalis (GRE)) [µg/mL]	MIC 559 E. faecalis (GSE) (559 E. faecalis (GSE)) [µg/mL]	MIC 569 E. faecium (GRE) (569 E. faecium (GRE)) [µg/mL]	MIC 568 E. faecium (GSE) (568 E. faecium (GSE)) [µg/mL]
CCCCc1ccc(CNCC(=O)NC2(C)CC(OC3C(Oc4c5cc6cc4Oc4ccc(cc4Cl)C(O)C(NC(=O)C(CC(C)C)NC)C(=O)NC(CC(N)=O)C(=O)NC6C(=O)NC4C(=O)NC(C(=O)NC(C(=O)NC6C7CC8CC(C7)CC6C8)c6cc(O)cc(O)c6-c6cc4ccc6O)C(OC4CC(C)(N)C(O)C(C)O4)c4ccc(cc4)O5)OC(CO)C(O)C3O)OC(C)C2O)cc1 (centres unmarked) [Compound 263]	16 (≈ 8.45 µM)	16 (≈ 8.45 µM)	8 (≈ 4.22 µM)	8 (≈ 4.22 µM)	8 (≈ 4.22 µM)	8 (≈ 4.22 µM)	8 (≈ 4.22 µM)	8 (≈ 4.22 µM)
CCCCCCCCOc1ccc(CNCC(=O)NC2(C)CC(OC3C(Oc4c5cc6cc4Oc4ccc(cc4Cl)C(O)C(NC(=O)C(CC(C)C)NC)C(=O)NC(CC(N)=O)C(=O)NC6C(=O)NC4C(=O)NC(C(=O)NC(C(=O)O)c6cc(O)cc(O)c6-c6cc4ccc6O)C(OC4CC(C)(N)C(O)C(C)O4)c4ccc(cc4)O5)OC(CO)C(O)C3O)OC(C)C2O)cc1 (centres unmarked) [Compound 214]	4 (≈ 2.18 µM)	4 (≈ 2.18 µM)	1 (≈ 0.545 µM)	1 (≈ 0.545 µM)	8 (≈ 4.36 µM)	1 (≈ 0.545 µM)	8 (≈ 4.36 µM)	0.5 (≈ 0.273 µM)
CNC(CC(C)C)C(=O)NC1C(=O)NC(CC(N)=O)C(=O)NC2C(=O)NC3C(=O)NC(C(=O)NC(C(=O)O)c4cc(O)cc(O)c4-c4cc3ccc4O)C(OC3CC(C)(N)C(O)C(C)O3)c3ccc(cc3)Oc3cc2cc(c3OC2OC(CO)C(O)C(O)C2OC2CC(C)(NC(=O)[C@@H](N)Cc3ccccc3)C(O)C(C)O2)Oc2ccc(cc2Cl)C1O (some centres unmarked) [Compound 230]	>32	>32	4 (≈ 2.35 µM)	4 (≈ 2.35 µM)	>64	2 (≈ 1.17 µM)	>64	2 (≈ 1.17 µM)
CNC(CC(C)C)C(=O)NC1C(=O)NC(CC(N)=O)C(=O)NC2C(=O)NC3C(=O)NC(C(=O)NC(C(=O)O)c4cc(O)cc(O)c4-c4cc3ccc4O)C(OC3CC(C)(N)C(O)C(C)O3)c3ccc(cc3)Oc3cc2cc(c3OC2OC(CO)C(O)C(O)C2OC2CC(C)(NC(=O)[C@@H](N)Cc3ccc(OCc4ccccc4)cc3)C(O)C(C)O2)Oc2ccc(cc2Cl)C1O (some centres unmarked) [Compound 228]	16 (≈ 8.83 µM)	16 (≈ 8.83 µM)	4 (≈ 2.21 µM)	4 (≈ 2.21 µM)	>64	2 (≈ 1.1 µM)	>64	2 (≈ 1.1 µM)
CNC(CC(C)C)C(=O)NC1C(=O)NC(CC(N)=O)C(=O)NC2C(=O)NC3C(=O)NC(C(=O)NC(C(=O)O)c4cc(O)cc(O)c4-c4cc3ccc4O)C(OC3CC(C)(N)C(O)C(C)O3)c3ccc(cc3)Oc3cc2cc(c3OC2OC(CO)C(O)C(O)C2OC2CC(C)(NC(=O)CNCc3ccc(F)cc3)C(O)C(C)O2)Oc2ccc(cc2Cl)C1O (centres unmarked) [Compound 293]	8 (≈ 4.64 µM)	8 (≈ 4.64 µM)	4 (≈ 2.32 µM)	4 (≈ 2.32 µM)	16 (≈ 9.29 µM)	4 (≈ 2.32 µM)	16 (≈ 9.29 µM)	4 (≈ 2.32 µM)
CNC(CC(C)C)C(=O)NC1C(=O)NC(CC(N)=O)C(=O)NC2C(=O)NC3C(=O)NC(C(=O)NC(C(=O)NCc4ccc(F)cc4)c4cc(O)cc(O)c4-c4cc3ccc4O)C(O)c3ccc(c(Cl)c3)Oc3cc2cc(c3OC2OC(CO)C(O)C(O)C2OC2CC(C)(N)C(O)C(C)O2)Oc2ccc(cc2Cl)C1O (centres unmarked) [Compound 288]	4 (≈ 2.57 µM)	4 (≈ 2.57 µM)	1 (≈ 0.643 µM)	2 (≈ 1.29 µM)	>64	0.13 (≈ 0.0835 µM)	>64	0.13 (≈ 0.0835 µM)
CNC(CC(C)C)C(=O)NC1C(=O)NC(CC(N)=O)C(=O)NC2C(=O)NC3C(=O)NC(C(=O)NC(C(=O)O)c4cc(O)cc(O)c4-c4cc3ccc4O)C(OC3CC(C)(N)C(O)C(C)O3)c3ccc(cc3)Oc3cc2cc(c3OC2OC(CO)C(O)C(O)C2OC2CC(C)(NC(=O)CNCc3c[nH]c4ccc(OCc5ccccc5)cc34)C(O)C(C)O2)Oc2ccc(cc2Cl)C1O (centres unmarked) [Compound 224]	8 (≈ 4.32 µM)	8 (≈ 4.32 µM)	2 (≈ 1.08 µM)	2 (≈ 1.08 µM)	>64	2 (≈ 1.08 µM)	16 (≈ 8.65 µM)	1 (≈ 0.54 µM)
